The text below walks through data of US12053459B2, “CDK2 inhibitors and methods of using the same” (Cedilla Therapeutics, Inc., priority 2021, dated 2024).

One experiment concerns Kuramochi cells. Description: BrdU cell proliferation assay (colorimetric ELISA), Kuramochi cells. The experiment is classed as cell-based. The note with it: class symbols A-D. An outline of the steps:
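Proliferation was read as BrdU incorporation: a 1 h pulse, then fixation and peroxidase-antibody ELISA at 450 nm, with values normalized to DMSO after empty-well subtraction. Treatment lasted 4 days on Kuramochi cells seeded at 2,000/well, using four 3-fold compound dilutions from 10 mM stocks. RB^KO Kuramochi cells were run in parallel for specificity.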
On the technique in general: In an ELISA, binding on a coated surface is turned into a signal by an enzyme label.

The next experiment concerns the target CDK2/Cyclin E1(14-475) (Homo sapiens, UniProt P24941). The experiment is described as follows: Caliper LabChip EZ Reader mobility shift assay, inhibition of CDK2/Cyclin E1 activity. It counts as biochemical. The note with it: class symbols A-D. The gist of the method:
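Mobility-shift readout of fluorescent peptide (1.5 μM final) phosphorylation by 2.5 nM CDK2/Cyclin E1(14-475) at 100 μM ATP, pH 7.5. Compounds pre-incubated 30 min with enzyme before substrate addition; 100-min reaction halted by EDTA, normalized % activity fitted to four-parameter curve for IC50.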

Broadly, the IC50 is the concentration at which inhibition is half-maximal. Turning to `CNC(=O)[C@H](CCCc1ccccc1)NC(=O)C1CN(C(=O)c2ncc(Cl)cn2)CC2CN(C(=O)c3ccc(OC(C)C)c(OC)c3)CC21` (some centres unmarked) [I-196], the IC50 with Kuramochi cells and on CDK2/Cyclin E1(14-475) was more than 10 µM in each case.
For the compound `CNC(=O)[C@H](CCCc1ccccc1)NC(=O)C1CN(C(=O)c2cc(Cl)[nH]n2)CC2CN(C(=O)c3ccc(OC(C)C)c(OC)c3)CC21` (some centres unmarked) [I-197], the IC50 with Kuramochi cells and on CDK2/Cyclin E1(14-475) was more than 10 µM in each case.
As for `CNC(=O)[C@H](CCCc1ccccc1)NC(=O)C1CN(C(=O)Cc2cc[nH]n2)CC2CN(C(=O)c3ccc(OC(C)C)c(OC)c3)CC21` (some centres unmarked) [I-198], the IC50 in the experiment on Kuramochi cells and at CDK2/Cyclin E1(14-475) was more than 10 µM in each case.
Regarding `CNC(=O)[C@H](CCCc1ccccc1)NC(=O)C1CN(C(=O)c2ccc3cccn3c2)CC2CN(C(=O)c3ccc(OC(C)C)c(OC)c3)CC21` (some centres unmarked) [I-199], the IC50 in the experiment on Kuramochi cells and on CDK2/Cyclin E1(14-475) was more than 10 µM throughout.
With `CNC(=O)[C@H](CCCc1ccccc1)NC(=O)C1CN(C(=O)Cc2c[nH]c3ccc(OC)cc23)CC2CN(C(=O)c3ccc(OC(C)C)c(OC)c3)CC21` (some centres unmarked) [I-200], the IC50 is more than 10 µM in the experiment with Kuramochi cells and 5 to 10 µM on CDK2/Cyclin E1(14-475).
As for `CNC(=O)[C@H](CCCc1ccccc1)NC(=O)C1CN(C(=O)Cc2c(C)[nH]c3ccccc23)CC2CN(C(=O)c3ccc(OC(C)C)c(OC)c3)CC21` (some centres unmarked) [I-201], the values for the IC50 in the experiment with Kuramochi cells and on CDK2/Cyclin E1(14-475) were more than 10 µM and 0.5 to 5 µM, respectively.
The matching figures for `CNC(=O)[C@H](CCCc1ccccc1)NC(=O)C1CN(C(=O)Cc2ccncc2)CC2CN(C(=O)c3ccc(OC(C)C)c(OC)c3)CC21` (some centres unmarked) [I-202]: more than 10 µM and more than 10 µM.
As for `CNC(=O)[C@H](CCCc1ccccc1)NC(=O)C1CN(C(=O)Cc2c[nH]c3cc(C#N)ccc23)CC2CN(C(=O)c3ccc(OC(C)C)c(OC)c3)CC21` (some centres unmarked) [I-203], the values for the IC50 with Kuramochi cells and at CDK2/Cyclin E1(14-475) were more than 10 µM and 0.5 to 5 µM, respectively.
The matching figures for `CNC(=O)[C@H](CCCc1ccccc1)NC(=O)C1CN(C(=O)Cc2coc3cc(Cl)ccc23)CC2CN(C(=O)c3ccc(OC(C)C)c(OC)c3)CC21` (some centres unmarked) [I-204]: more than 10 µM and 0.5 to 5 µM.
As for `CNC(=O)[C@H](CCCc1ccccc1)NC(=O)C1CN(C(=O)Cc2n[nH]c3cc(Cl)ccc23)CC2CN(C(=O)c3ccc(OC(C)C)c(OC)c3)CC21` (some centres unmarked) [I-205], the IC50 is more than 10 µM in the experiment on Kuramochi cells and 0.5 to 5 µM on CDK2/Cyclin E1(14-475).
The matching figures for `CNC(=O)[C@H](CCCc1ccccc1)NC(=O)C1CN(C(=O)c2cncs2)CC2CN(C(=O)c3ccc(OC(C)C)c(OC)c3)CC21` (some centres unmarked) [I-206]: more than 10 µM and more than 10 µM.
On to `CNC(=O)[C@H](CCCc1ccccc1)NC(=O)C1CN(C(=O)C2CCOCC2)CC2CN(C(=O)c3ccc(OC(C)C)c(OC)c3)CC21` (some centres unmarked) [I-207], for which the half-maximal inhibitory concentration (IC50) in the experiment with Kuramochi cells and at CDK2/Cyclin E1(14-475) was more than 10 µM in each case.
Regarding `CNC(=O)[C@H](CCCc1ccccc1)NC(=O)C1CN(C(=O)c2ccc(C#N)cn2)CC2CN(C(=O)c3ccc(OC(C)C)c(OC)c3)CC21` (some centres unmarked) [I-208], the IC50 in the experiment with Kuramochi cells and on CDK2/Cyclin E1(14-475) was more than 10 µM throughout.
`CNC(=O)[C@H](CCCc1ccccc1)NC(=O)C1CN(C(=O)c2cccc(CO)n2)CC2CN(C(=O)c3ccc(OC(C)C)c(OC)c3)CC21` (some centres unmarked) [I-209]: the IC50 with Kuramochi cells and on CDK2/Cyclin E1(14-475) was more than 10 µM throughout.
Regarding `CNC(=O)[C@H](CCCc1ccccc1)NC(=O)C1CN(C(=O)c2cccc(-c3cccnc3)c2)CC2CN(C(=O)c3ccc(OC(C)C)c(OC)c3)CC21` (some centres unmarked) [I-210], the IC50 in the experiment on Kuramochi cells and on CDK2/Cyclin E1(14-475) was more than 10 µM throughout.
On to `CNC(=O)[C@H](CCCc1ccccc1)NC(=O)C1CN(C(=O)c2cncc(C)n2)CC2CN(C(=O)c3ccc(OC(C)C)c(OC)c3)CC21` (some centres unmarked) [I-211], for which the IC50 in the experiment with Kuramochi cells and at CDK2/Cyclin E1(14-475) was more than 10 µM throughout.
Regarding `CNC(=O)[C@H](CCCc1ccccc1)NC(=O)C1CN(C(=O)Cc2c[nH]c3cnccc23)CC2CN(C(=O)c3ccc(OC(C)C)c(OC)c3)CC21` (some centres unmarked) [I-212], the IC50 in the experiment on Kuramochi cells and on CDK2/Cyclin E1(14-475) was more than 10 µM throughout.
With `CNC(=O)[C@H](CCCc1ccccc1)NC(=O)C1CN(C(=O)c2cccc3cc[nH]c23)CC2CN(C(=O)c3ccc(OC(C)C)c(OC)c3)CC21` (some centres unmarked) [I-213], the IC50 in the experiment on Kuramochi cells and on CDK2/Cyclin E1(14-475) was more than 10 µM throughout.
As to `CCc1ccc(C(=O)N2CC3CN(C(=O)c4ccc(OC(C)C)c(OC)c4)CC3C(C(=O)N[C@@H](CCCc3ccccc3)C(=O)NC)C2)nc1` (some centres unmarked) [I-214], the IC50 in the experiment on Kuramochi cells and at CDK2/Cyclin E1(14-475) was more than 10 µM throughout.
For `CNC(=O)[C@H](CCCc1ccccc1)NC(=O)C1CN(C(=O)c2ccn(C)c2)CC2CN(C(=O)c3ccc(OC(C)C)c(OC)c3)CC21` (some centres unmarked) [I-215], the IC50 in the experiment on Kuramochi cells and on CDK2/Cyclin E1(14-475) was more than 10 µM each time.
Take `CNC(=O)[C@H](CCCc1ccccc1)NC(=O)C1CN(C(=O)c2ccc(OC)nn2)CC2CN(C(=O)c3ccc(OC(C)C)c(OC)c3)CC21` (some centres unmarked) [I-216]: the IC50 in the experiment with Kuramochi cells and at CDK2/Cyclin E1(14-475) was more than 10 µM throughout.
For the compound `CNC(=O)[C@H](CCCc1ccccc1)NC(=O)C1CN(C(=O)Cc2c[nH]c3cccc(C)c23)CC2CN(C(=O)c3ccc(OC(C)C)c(OC)c3)CC21` (some centres unmarked) [I-217], the IC50 with Kuramochi cells and on CDK2/Cyclin E1(14-475) was more than 10 µM each time.
As for `CNC(=O)[C@H](CCCc1ccccc1)NC(=O)C1CN(C(=O)Cc2cn(CCOC)c3ccccc23)CC2CN(C(=O)c3ccc(OC(C)C)c(OC)c3)CC21` (some centres unmarked) [I-218], the IC50 with Kuramochi cells and at CDK2/Cyclin E1(14-475) was more than 10 µM in each case.
Consider `CNC(=O)[C@H](CCCc1ccccc1)NC(=O)C1CN(C(=O)Cc2c[nH]c3ccc(C)cc23)CC2CN(C(=O)c3ccc(OC(C)C)c(OC)c3)CC21` (some centres unmarked) [I-219], for which the IC50 with Kuramochi cells is more than 10 µM; on CDK2/Cyclin E1(14-475), 0.5 to 5 µM.
In the case of `CNC(=O)[C@H](CCCc1ccccc1)NC(=O)C1CN(C(=O)Cc2c[nH]c3ccc(Cl)cc23)CC2CN(C(=O)c3ccc(OC(C)C)c(OC)c3)CC21` (some centres unmarked) [I-220], the IC50 with Kuramochi cells and at CDK2/Cyclin E1(14-475) was more than 10 µM in each case.
Turning to `CNC(=O)[C@H](CCCc1ccccc1)NC(=O)C1CN(C(=O)Cc2c[nH]c3ccccc23)CC2CN(C(=O)c3ccc(OC(C)C)c(OC)c3)CC21` (some centres unmarked) [I-223], the IC50 with Kuramochi cells and at CDK2/Cyclin E1(14-475) was more than 10 µM in each case.
Consider `CNC(=O)[C@H](CCCc1ccccc1)NC(=O)C1CN(C(=O)Cc2cn(C)c3cc(Cl)ccc23)CC2CN(C(=O)c3ccc(OC(C)C)c(OC)c3)CC21` (some centres unmarked) [I-225], for which the IC50 in the experiment on Kuramochi cells was more than 10 µM; on CDK2/Cyclin E1(14-475), 0.5 to 5 µM.
The matching figures for `CNC(=O)[C@H](CCCc1ccccc1)NC(=O)C1CN(C(=O)C(C)c2c[nH]c3cc(Cl)ccc23)CC2CN(C(=O)c3ccc(OC(C)C)c(OC)c3)CC21` (some centres unmarked) [I-226]: 5 to 10 µM and 0.5 to 5 µM.
`CNC(=O)[C@H](CCCc1ccccc1)NC(=O)C1CN(C(=O)Cc2c[nH]c3cc(Cl)c(Cl)cc23)CC2CN(C(=O)c3ccc(OC(C)C)c(OC)c3)CC21` (some centres unmarked) [I-227]: the IC50 in the experiment on Kuramochi cells is more than 10 µM; at CDK2/Cyclin E1(14-475), not above 0.5 µM.
The matching figures for `CNC(=O)[C@H](CCCc1ccccc1)NC(=O)C1CN(C(=O)c2c[nH]c3cc(C)ccc23)CC2CN(C(=O)c3ccc(OC(C)C)c(OC)c3)CC21` (some centres unmarked) [I-228]: more than 10 µM and more than 10 µM.
Regarding `CNC(=O)[C@H](CCCc1ccccc1)NC(=O)C1CN(C(=O)Cc2c[nH]c3c(OC)cccc23)CC2CN(C(=O)c3ccc(OC(C)C)c(OC)c3)CC21` (some centres unmarked) [I-229], the IC50 in the experiment on Kuramochi cells and at CDK2/Cyclin E1(14-475) was more than 10 µM each time.
Regarding `CNC(=O)[C@H](CCCc1ccccc1)NC(=O)C1CN(C(=O)Cc2cnccn2)CC2CN(C(=O)c3ccc(OC(C)C)c(OC)c3)CC21` (some centres unmarked) [I-230], the IC50 in the experiment on Kuramochi cells and at CDK2/Cyclin E1(14-475) was more than 10 µM throughout.
`CNC(=O)[C@H](CCCc1ccccc1)NC(=O)C1CN(C(=O)Cc2c[nH]c3cc(C)ccc23)CC2CN(C(=O)c3ccc(OC(C)C)c(OC)c3)CC21` (some centres unmarked) [I-231]: the IC50 was more than 10 µM with Kuramochi cells and 5 to 10 µM at CDK2/Cyclin E1(14-475).
For `CNC(=O)[C@H](CCCc1ccccc1)NC(=O)C1CN(C(=O)Cc2c[nH]c3cc(OCC4CC4)ccc23)CC2CN(C(=O)c3ccc(OC(C)C)c(OC)c3)CC21` (some centres unmarked) [I-234], the IC50 in the experiment on Kuramochi cells and on CDK2/Cyclin E1(14-475) was more than 10 µM throughout.
Take `CNC(=O)[C@H](CCCc1ccccc1)NC(=O)C1CN(C(=O)Cc2c[nH]c3ccc(Br)cc23)CC2CN(C(=O)c3ccc(OC(C)C)c(OC)c3)CC21` (some centres unmarked) [I-237]: the results for the IC50 in the experiment on Kuramochi cells and on CDK2/Cyclin E1(14-475) were more than 10 µM and not above 0.5 µM, respectively.
As to `COc1cc(C(=O)N2CC3CN(C(=O)Cc4c[nH]c5cc(Cl)ccc45)CC(C(=O)Nc4cncc(Cc5ccccc5)c4)C3C2)ccc1OC(C)C` (centres unmarked) [I-238, N-(5-benzylpyridin-3-yl)-5-(2-(6-chloro-1H-indol-3-yl)acetyl)-2-(4-isopropoxy-3-methoxybenzoyl)octahydro-1H-pyrrolo[3,4-c]pyridine-7-carboxamide], the IC50 in the experiment with Kuramochi cells and on CDK2/Cyclin E1(14-475) was 0.5 to 5 µM throughout.
Consider `COc1cc(C(=O)N2CC3CN(C(=O)Cc4c[nH]c5cc(Cl)ccc45)CC(C(=O)Nc4ccnc(Cc5ccccc5)c4)C3C2)ccc1OC(C)C` (centres unmarked) [I-239], for which the IC50 in the experiment with Kuramochi cells is more than 10 µM; on CDK2/Cyclin E1(14-475) it was 0.5 to 5 µM.
`COc1cc(C(=O)N2CC3CN(C(=O)Cc4c[nH]c5cc(Cl)ccc45)CC(C(=O)Nc4cncc(Oc5ccccc5)c4)C3C2)ccc1OC(C)C` (centres unmarked) [I-240]: the figures for the IC50 with Kuramochi cells and at CDK2/Cyclin E1(14-475) were more than 10 µM and 0.5 to 5 µM, respectively.
Consider `COc1cc(C(=O)N2CC3CN(C(=O)Cc4c[nH]c5cc(Cl)ccc45)CC(C(=O)Nc4ccc(Cc5ccccc5)nc4)C3C2)ccc1OC(C)C` (centres unmarked) [I-241], for which the IC50 in the experiment on Kuramochi cells and on CDK2/Cyclin E1(14-475) was more than 10 µM throughout.
As for `CNC(=O)[C@@H](NC(=O)C1CN(C(=O)Cc2c[nH]c3cc(Cl)ccc23)CC2CN(C(=O)c3ccc(OC4CC4)cc3)CC21)[C@@H](C)OCC1CCCCC1` (stereo partly drawn) [I-242, 5-(2-(6-chloro-1H-indol-3-yl)acetyl)-N-((2S,3R)-3-(cyclohexylmethoxy)-1-(methylamino)-1-oxobutan-2-yl)-2-(4-cyclopropoxybenzoyl)octahydro-1H-pyrrolo[3,4-c]pyridine-7-carboxamide], the values for the IC50 in the experiment with Kuramochi cells and at CDK2/Cyclin E1(14-475) were more than 10 µM and 0.5 to 5 µM, respectively.
